According to patent US8008299B2, “Urotensin II receptor antagonists” (Janssen Pharmaceutica, N.V., priority 2007, dated 2011):
pIC50, pKi: −log10 of the molar value. Read-outs that look alike come from different tables or passages of the source.

Legend:
[1] = biological target: T1, UT receptors in HSMM (Human Skeletal Muscle Myoblasts) (Homo sapiens, UniProt Q9UKP6); experiment: Human Radioligand Binding Assay ((^125I)-U-II binding to intact HSMM)
T1 sequence (Q9UKP6 1-389): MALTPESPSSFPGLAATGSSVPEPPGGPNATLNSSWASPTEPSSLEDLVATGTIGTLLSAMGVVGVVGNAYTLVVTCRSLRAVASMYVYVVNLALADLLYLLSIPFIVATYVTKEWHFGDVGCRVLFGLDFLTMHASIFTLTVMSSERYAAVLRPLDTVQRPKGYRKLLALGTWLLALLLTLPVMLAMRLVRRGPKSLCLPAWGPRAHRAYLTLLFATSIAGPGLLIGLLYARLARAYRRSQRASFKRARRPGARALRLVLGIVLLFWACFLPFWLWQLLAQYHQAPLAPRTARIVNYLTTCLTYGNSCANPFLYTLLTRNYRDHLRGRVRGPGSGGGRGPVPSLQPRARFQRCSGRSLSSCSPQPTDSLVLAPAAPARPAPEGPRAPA

[2] = biological target: T2, rat GPR14 (U-II receptor) (Rattus norvegicus, UniProt P49684); experiment: Rat UII Calcium Mobilization FLIPR Assay; type: cell-based; settings: CHO cells transfected with rat GPR14; antagonist activity after 5 min incubation vs agonist (Ac)-CFWK(2-NaI)C-NH2 at 1 nM
T2 construct: expressed in transfected cells
T2 sequence (P49684 1-386): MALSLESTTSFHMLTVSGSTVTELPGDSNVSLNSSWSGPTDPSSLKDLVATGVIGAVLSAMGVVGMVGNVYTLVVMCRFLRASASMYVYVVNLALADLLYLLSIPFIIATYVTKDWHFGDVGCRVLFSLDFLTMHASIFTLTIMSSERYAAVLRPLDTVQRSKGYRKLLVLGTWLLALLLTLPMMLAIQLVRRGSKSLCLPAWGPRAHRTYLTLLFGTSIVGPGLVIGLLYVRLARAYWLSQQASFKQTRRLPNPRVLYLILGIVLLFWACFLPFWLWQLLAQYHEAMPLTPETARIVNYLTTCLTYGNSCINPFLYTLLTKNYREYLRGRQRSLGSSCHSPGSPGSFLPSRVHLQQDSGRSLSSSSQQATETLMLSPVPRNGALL
From the text: To derive these cells, the complete coding sequence of rat U-II (Genbank Accession No. U32673) was amplified by nested PCR from rat heart marathon-Ready cDNA. […] The PCR products were cloned into pcDNA3 (Invitrogen) digested with EcoR I and Xba I. Clones containing rat U-II receptor were verified by complete sequencing of the U-II receptor insert to ensure a lack of PCR-introduced errors. The constructed vector was transfected into CHO cells by using lipofectamine (GIBCO BRL). CHO cells with high expression of rat U-II receptor were selected and established as stable cell lines by using G418. CHO cells were seeded at 25,000 cells per well into 96-well, black-wall, clear-bottom microtiter plates 24 h before assay. Cells in culture media (DMEM/F12 containing 15 mM HEPES, L-glutamine, pyridoxine hydrochloride; 10% fetal bovine serum; 1 mg/mL G418 sulfate; antibiotic-antimycotic; pH 7.4) were loaded with proprietary dye, from the FLIPR Calcium Assay Kit (Molecular Devices), prepared in assay buffer (Hanks Balanced Salts Solution, 20 mM HEPES, 0.1% BSA, 2.5 mM probenecid, pH 7.4), and incubated for 1 h at 37° C. Calcium mobilization determinations were performed at room temperature (23° C.).

[3] = biological target: T3, Human UII (U-II receptor) in 6D9 human rhabdomyosarcoma cells (Homo sapiens, UniProt Q9UKP6); experiment: Human UII Calcium Mobilization Assay; type: cell-based
T3 construct: 6D9: isolated by dilution subcloning of RMS13 cells, ATCC® Number: CRL-2061; host or cells: 6D9 human rhabdomyosarcoma cells (subclone of RMS13)
T3 sequence (Q9UKP6 1-389): T1 sequence (Q9UKP6 1-389)
Method: 25 μL of dye solution was added to the wells such that the final liquid volume before agonist/antagonist treatment was 50 μL for all assays. The cell plates were incubated at 37° C. for 45 minutes and the fluorescence intensity was measured on a Fluorometric Imaging Plate Reader (FLIPR^TETRA, Molecular Devices, Sunnyvale, Calif.).
Antagonist and agonist U-II were added at room temperature on the FLIPR^TETRA, and the fluorescence intensity before and after addition was measured over a period of 4 minutes. The dye incubation time and temperature as well as instrument setting was adjusted so the fluorescence intensity could be compared between plates on the same day. EC50 and IC50 were analyzed using GraphPad Prism 4 software (GraphPad Software Inc., San Diego, Calif.).
For assays, U-II agonist, U-II antagonist and urantide were diluted with HBSS/HEPES containing 0.01% FBS.
Test compounds were dissolved in DMSO at 10 mM concentration. The serial dilutions were carried out in HBSS/HEPES. The highest final DMSO concentration was at 0.1%.

[4] = 6D9 human rhabdomyosarcoma cells, FLIPR TETRA, average, read-out: Human UII Ca+ Mobilization Average IC50
[5] = read-out: Human UII Average Binding Ki, intact HSMM, 0.150 nM (^125I)-U-II, 3 h, 25° C.

| Compound | pKi [1] | pIC50 [2] | pIC50 [3, 4] | pKi [1, 5] | pIC50 [3] |
| --- | --- | --- | --- | --- | --- |
| COc1ccc([C@@H](CCCN(C)S(=O)(=O)c2cccs2)N2Cc3c(cccc3N3CCN(C4CCC4)CC3)C2=O)cc1OC [Cpd 9, thiophene-2-sulfonic acid [(4R)-4-[4-(4-cyclobutyl-piperazin-1-yl)-1-oxo-1,3-dihydro-isoindol-2-yl]-4-(3,4-dimethoxy-phenyl)-butyl]-methyl-amide] | – | 8.40 | 6.29 | 7.36 | – |
| CCN1CCN(c2cccc3c2CN([C@H](CCCNCc2ccc(F)cc2)c2ccc(OC)c(OC)c2)C3=O)CC1 [Cpd 91, 2-[(1R)-1-(3,4-dimethoxy-phenyl)-4-(4-fluoro-benzylamino)-butyl]-4-(4-ethyl-piperazin-1-yl)-2,3-dihydro-isoindol-1-one] | 7.21 | 8.52 | 6.97 | – | – |
| CCN1CCN(c2cccc3c2CN([C@H](CCCNC(=O)c2c(C)n[nH]c2C)c2ccc(OC)c(OC)c2)C3=O)CC1 [Cpd 60, 3,5-dimethyl-1H-pyrazole-4-carboxylic acid {(4R)-4-(3,4-dimethoxy-phenyl)-4-[4-(4-ethyl-piperazin-1-yl)-1-oxo-1,3-dihydro-isoindol-2-yl]-butyl}-amide] | – | 7.80 | 6.89 | 7.96 | – |
| CCN1CCN(c2cccc3c2CN([C@H](CCCNc2nc(OC)cc(OC)n2)c2ccc(OC)c(OC)c2)C3=O)CC1 [Cpd 10, 2-[(1R)-1-(3,4-dimethoxy-phenyl)-4-(4,6-dimethoxy-pyrimidin-2-ylamino)-butyl]-4-(4-ethyl-piperazin-1-yl)-2,3-dihydro-isoindol-1-one] | 7.09 | 8.40 | 6.21 | – | – |
| CCc1ccnc(NCCC[C@H](c2ccc(OC)c(OC)c2)N2Cc3c(cccc3N3CCN(CC)CC3)C2=O)n1 [Cpd 20, 2-[(1R)-1-(3,4-dimethoxy-phenyl)-4-(4-ethyl-pyrimidin-2-ylamino)-butyl]-4-(4-ethyl-piperazin-1-yl)-2,3-dihydro-isoindol-1-one] | 7.32 | 7.47 | 6.31 | – | – |
| CCN1CCN(c2cccc3c2CN([C@H](CCCn2ccnc2C(C)C)c2ccc(OC)c(OC)c2)C3=O)CC1 [Cpd 104, 2-[(1R)-1-(3,4-dimethoxy-phenyl)-4-(2-isopropyl-imidazol-1-yl)-butyl]-4-(4-ethyl-piperazin-1-yl)-2,3-dihydro-isoindol-1-one] | 7.34 | 7.80 | 6.69 | – | – |
| CCN1CCN(c2cccc3c2CN([C@H](CCCNC(=O)C(F)(F)F)c2ccc(OC)c(OC)c2)C3=O)CC1 [Cpd 67, N-{(4R)-4-(3,4-dimethoxy-phenyl)-4-[4-(4-ethyl-piperazin-1-yl)-1-oxo-1,3-dihydro-isoindol-2-yl]-butyl}-2,2,2-trifluoro-acetamide] | 7.37 | 7.30 | 6.06 | – | – |
| COc1ccc([C@@H](CCCN(C)S(=O)(=O)c2cccs2)N2Cc3c(cccc3N3CCN(C4CC4)CC3)C2=O)cc1OC [Cpd 7, thiophene-2-sulfonic acid [(4R)-4-[4-(4-cyclopropyl-piperazin-1-yl)-1-oxo-1,3-dihydro-isoindol-2-yl]-4-(3,4-dimethoxy-phenyl)-butyl]-methyl-amide] | – | 7.89 | – | 7.23 | 5.93 |
| COc1ccc([C@@H](CCCOc2ccccc2)N2Cc3c(cccc3N3CCN(C4CC4)CC3)C2=O)cc1OC [Cpd 28, 4-(4-cyclopropyl-piperazin-1-yl)-2-[(1R)-1-(3,4-dimethoxy-phenyl)-4-phenoxy-butyl]-2,3-dihydro-isoindol-1-one] | 6.81 | 7.60 | 5.92 | – | – |
| CCN1CCN(c2cccc3c2CN([C@H](CCCN(Cc2ccccc2)Cc2ccccc2)c2ccc(OC)c(OC)c2)C3=O)CC1 [Cpd 73, 2-[(1R)-4-dibenzylamino-1-(3,4-dimethoxy-phenyl)-butyl]-4-(4-ethyl-piperazin-1-yl)-2,3-dihydro-isoindol-1-one] | 7.28 | 7.59 | 6.75 | – | – |
| CCN1CCC(C(c2ccc(OC)c(OC)c2)N2Cc3c(cccc3N3CCN(CC)CC3)C2=O)CC1 (stereo not drawn) [Cpd 42, 2-[(3,4-dimethoxy-phenyl)-(1-ethyl-piperidin-4-yl)-methyl]-4-(4-ethyl-piperazin-1-yl)-2,3-dihydro-isoindol-1-one] | < 6.52 | 5.44 | < 5.00 | – | – |

More lines, main results first:

| pKi [1] | pIC50 [2] | pIC50 [3, 4] | Compound | pKi [1, 5] | pIC50 [3] |
| --- | --- | --- | --- | --- | --- |
| 7.27 | 8.10 | 7.01 | CCN1CCN(c2cccc3c2CN([C@H](CCCNS(=O)(=O)N(C)C)c2ccc(OC)c(OC)c2)C3=O)CC1 [Cpd 70, dimethylaminosulfonic acid {(4R)-4-(3,4-dimethoxy-phenyl)-4-[4-(4-ethyl-piperazin-1-yl)-1-oxo-1,3-dihydro-isoindol-2-yl]-butyl}-amide] | – | – |
| 7.64 | 8.30 | 7.04 | CCN1CCN(c2cccc3c2CN([C@H](CCCN(C)Cc2cccs2)c2ccc(OC)c(OC)c2)C3=O)CC1 [Cpd 95, 2-[(1R)-1-(3,4-dimethoxy-phenyl)-4-(methyl-thiophen-2-ylmethyl-amino)-butyl]-4-(4-ethyl-piperazin-1-yl)-2,3-dihydro-isoindol-1-one] | – | – |
| – | 8.70 | 6.75 | COc1ccc([C@@H](CCCN(C)S(=O)(=O)c2cccs2)N2Cc3c(cccc3N3CCN(C(C)C)CC3)C2=O)cc1OC [Cpd 8, thiophene-2-sulfonic acid {(4R)-4-(3,4-dimethoxy-phenyl)-4-[4-(4-isopropyl-piperazin-1-yl)-1-oxo-1,3-dihydro-isoindol-2-yl]-butyl}-methyl-amide] | 7.96 | – |
| 7.25 | 7.28 | 6.56 | CCN1CCN(c2cccc3c2CN([C@H](CCCNS(=O)(=O)c2cn(C)cn2)c2ccc(OC)c(OC)c2)C3=O)CC1 [Cpd 53, 1-methyl-1H-imidazole-4-sulfonic acid {(4R)-4-(3,4-dimethoxy-phenyl)-4-[4-(4-ethyl-piperazin-1-yl)-1-oxo-1,3-dihydro-isoindol-2-yl]-butyl}-amide] | – | – |
| 7.33 | 8.40 | 6.62 | CCN1CCN(c2cccc3c2CN([C@H](CCCN(C)Cc2ccc(F)cc2)c2ccc(OC)c(OC)c2)C3=O)CC1 [Cpd 99, 2-{(1R)-1-(3,4-dimethoxy-phenyl)-4-[(4-fluoro-benzyl)-methyl-amino]-butyl}-4-(4-ethyl-piperazin-1-yl)-2,3-dihydro-isoindol-1-one] | – | – |
| 7.30 | 7.49 | 6.16 | CCN1CCC(c2cccc3c2CN([C@H](CCCN(C)S(=O)(=O)c2cccs2)c2ccc(OC)c(OC)c2)C3=O)CC1 [Cpd 2, thiophene-2-sulfonic acid {(4R)-4-(3,4-dimethoxy-phenyl)-4-[4-(1-ethyl-piperidin-4-yl)-1-oxo-1,3-dihydro-isoindol-2-yl]-butyl}-methyl-amide] | – | – |
